Like-named read-outs stand apart in the source and are kept apart here.
Assays:
[1] = system: Key Broadleaf Weed and Crop Species; assay: Post-emergent Test II herbicidal activity (Table 15); assay type: in vivo; conditions: post-emergence, 336 h, 14 d; for pest or weed control at 35 g/ha: 35 g ai/ha; for pest or weed control at 70 g/ha: 70 g ai/ha; for pest or weed control at 140 g/ha: 140 g ai/ha
How it was run: (§1)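 Greenhouse-grown seedlings at first/second true leaf receive a track spray at 187 L/ha, using a highest rate plus two-fold serial dilutions down to 1/16×. Watering is by subirrigation to avoid wash-off. Percent injury (0-100) is judged by eye at 14 d against untreated plants.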

[2] = system: Key Grass and Sedge Weeds as well as Grass Crops; assay: Post-emergent Test II herbicidal activity (Table 16); assay type: in vivo; conditions: post-emergence, 336 h, 14 d; for pest or weed control at 35 g/ha: 35 g ai/ha; for pest or weed control at 70 g/ha: 70 g ai/ha; for pest or weed control at 140 g/ha: 140 g ai/ha
How it was run: as §1

[3] = Abutilon theophrasti, velvetleaf (Abutilon theophrasti), read-out: Visual Growth Reduction (%) 14 Days After Application, ABUTH
[4] = Amaranthus retroflexus, redroot pigweed (Amaranthus retroflexus), read-out: Visual Growth Reduction (%) 14 Days After Application, AMARE
[5] = Brassica napus, oilseed rape, canola (Brassica napus), read-out: Visual Growth Reduction (%) 14 Days After Application, BRSNN
[6] = Chenopodium album, lambsquarters (Chenopodium album), read-out: Visual Growth Reduction (%) 14 Days After Application, CHEAL
[7] = Euphorbia heterophylla, wild poinsettia (Euphorbia heterophylla), read-out: Visual Growth Reduction (%) 14 Days After Application, EPHHL
[8] = Helianthus annuus, sunflower (Helianthus annuus), read-out: Visual Growth Reduction (%) 14 Days After Application, HELAN
[9] = Cyperus esculentus, yellow nutsedge (Cyperus esculentus), read-out: Visual Growth Reduction (%) 14 Days After Application, CYPES
[10] = Echinochloa crus-galli, barnyardgrass (Echinochloa crus-galli), read-out: Visual Growth Reduction (%) 14 Days After Application, ECHCG
[11] = Oryza sativa, rice (Oryza sativa), read-out: Visual Growth Reduction (%) 14 Days After Application, ORYSA
[12] = Setaria faberi, giant foxtail (Setaria faberi), read-out: Visual Growth Reduction (%) 14 Days After Application, SETFA
[13] = Triticum aestivum, wheat, spring (Triticum aestivum), read-out: Visual Growth Reduction (%) 14 Days After Application, TRZAS
[14] = Zea mays, maize, corn (Zea mays), read-out: Visual Growth Reduction (%) 14 Days After Application, ZEAMX

Compound	pest or weed control at 35 g/ha [1, 3] [%]	pest or weed control at 70 g/ha [1, 3] [%]	pest or weed control at 140 g/ha [1, 3] [%]	pest or weed control at 35 g/ha [1, 4] [%]	pest or weed control at 70 g/ha [1, 4] [%]	pest or weed control at 140 g/ha [1, 4] [%]	pest or weed control at 35 g/ha [1, 5] [%]	pest or weed control at 70 g/ha [1, 5] [%]	pest or weed control at 140 g/ha [1, 5] [%]	pest or weed control at 35 g/ha [1, 6] [%]	pest or weed control at 70 g/ha [1, 6] [%]	pest or weed control at 140 g/ha [1, 6] [%]	pest or weed control at 35 g/ha [1, 7] [%]	pest or weed control at 70 g/ha [1, 7] [%]	pest or weed control at 140 g/ha [1, 7] [%]	pest or weed control at 35 g/ha [1, 8] [%]	pest or weed control at 70 g/ha [1, 8] [%]	pest or weed control at 140 g/ha [1, 8] [%]	pest or weed control at 35 g/ha [2, 9] [%]	pest or weed control at 70 g/ha [2, 9] [%]	further results
COC(=O)c1nc(-c2ccc3sccc3c2)c(Cl)c(N)c1Cl [Compound 3.01, Methyl 4-amino-6-(benzo[b]thiophenyl-5-yl)-3,5-dichloropicolinate]	60 to 74	60 to 74	75 to 84	85 to 94	95 to 100	95 to 100	0 to 29	0 to 29	0 to 29	95 to 100	95 to 100	95 to 100	0 to 29	0 to 29	0 to 29	75 to 84	75 to 84	85 to 94	0 to 29	0 to 29	pest or weed control at 140 g/ha [2, 9]: 0 to 29%; pest or weed control at 35 g/ha [2, 10]: 0 to 29%; pest or weed control at 70 g/ha [2, 10]: 0 to 29%; pest or weed control at 140 g/ha [2, 10]: 0 to 29%; pest or weed control at 35 g/ha [2, 11]: 0 to 29%; pest or weed control at 70 g/ha [2, 11]: 0 to 29%; pest or weed control at 140 g/ha [2, 11]: 0 to 29%; pest or weed control at 35 g/ha [2, 12]: 0 to 29%; pest or weed control at 70 g/ha [2, 12]: 0 to 29%; pest or weed control at 140 g/ha [2, 12]: 0 to 29%; pest or weed control at 35 g/ha [2, 13]: 0 to 29%; pest or weed control at 70 g/ha [2, 13]: 0 to 29%; pest or weed control at 140 g/ha [2, 13]: 0 to 29%; pest or weed control at 35 g/ha [2, 14]: 0 to 29%; pest or weed control at 70 g/ha [2, 14]: 45 to 59%; pest or weed control at 140 g/ha [2, 14]: 60 to 74%; melting point: 50 to 56 °C
Nc1c(Cl)c(C(=O)O)nc(-c2ccc3sccc3c2)c1Cl [Compound 3.02, 4-Amino-6-(benzo[b]thiophen-5-yl)-3,5-dichloropicolinic acid]	0 to 29	0 to 29	0 to 29	95 to 100	95 to 100	95 to 100	0 to 29	0 to 29	0 to 29	85 to 94	85 to 94	85 to 94	0 to 29	0 to 29	0 to 29	60 to 74	75 to 84	85 to 94	0 to 29	0 to 29	pest or weed control at 140 g/ha [2, 9]: 0 to 29%; pest or weed control at 35 g/ha [2, 10]: 0 to 29%; pest or weed control at 70 g/ha [2, 10]: 0 to 29%; pest or weed control at 140 g/ha [2, 10]: 0 to 29%; pest or weed control at 35 g/ha [2, 11]: 0 to 29%; pest or weed control at 70 g/ha [2, 11]: 0 to 29%; pest or weed control at 140 g/ha [2, 11]: 0 to 29%; pest or weed control at 35 g/ha [2, 12]: 0 to 29%; pest or weed control at 70 g/ha [2, 12]: 0 to 29%; pest or weed control at 140 g/ha [2, 12]: 0 to 29%; pest or weed control at 35 g/ha [2, 13]: 0 to 29%; pest or weed control at 70 g/ha [2, 13]: 0 to 29%; pest or weed control at 140 g/ha [2, 13]: 0 to 29%; pest or weed control at 35 g/ha [2, 14]: 0 to 29%; pest or weed control at 70 g/ha [2, 14]: 60 to 74%; pest or weed control at 140 g/ha [2, 14]: 60 to 74%; melting point: 157 to 159 °C

Source: patent US20170050957A1, “4-AMINO-6-(HETEROCYCLIC)PICOLINATES AND 6-AMINO-2-(HETEROCYCLIC)PYRIMIDINE-4-CARBOXYLATES AND THEIR USE AS HERBICIDES” (Dow AgroSciences LLC, priority 2013, published 2017)
